Reference: US20220047529A1, “METHODS OF INHIBITION” (University of Canberra, priority 2018, published 2022)

System: form-deprivation myopia
Assay: Form-deprivation myopia (FDM) development in chicks with a translucent diffuser; axial length by A-scan ultrasonography
Settings: four days; for axial length: diffuser-treated eye
[1] = daily intravitreal injection of 1.5 mM solution
[2] = daily intravitreal injection of 15 mM solution
[3] = daily intravitreal injection of 1.5 mM solution (10 μL), mean±SEM
[4] = daily intravitreal injection of 15 mM solution (10 μL), mean±SEM
[5] = twice daily topical administration of 1.5 mM solution, mean±SEM
[6] = twice daily topical eye drops of 15 mM solution, mean±SEM
[7] = twice daily topical eye drops of 15 mM solution

Experimental: 30 white male cockerel chickens were randomly assigned to one of six treatment groups as defined below (n=5 per group) and were treated for a four day period. • Chicks fitted with a translucent diffuser over their left eye to induce form-deprivation myopia (FDM); • Chicks fitted with a translucent diffuser over their left eye and daily intravitreal injection of a 1.5 mM (0.028%) dopamine solution prepared according to Example 1; • Chicks fitted with a translucent diffuser over their left eye and twice daily topical administration of a 1.5 mM (0.028%) dopamine solution prepared according to Example 1; • Chicks fitted with a translucent diffuser over their left eye and daily intravitreal injection of a 15 mM (0.28%) dopamine solution prepared according to Example 1; • Chicks fitted with a translucent diffuser over their left eye and twice daily topical administration of a 15 mM (0.28%) dopamine solution prepared according to Example 1; • Age-matched untreated control group.
For the drug treatments, the compositions were administered under light isoflurane anesthesia using intravitreal injection or topical administration.
Intravitreal injection was performed as follows: Using a 30 gauge needle attached to a Hamilton syringe, 10 μL (0.01 mL) of the test composition was injected into the vitreous chamber of the eye once daily.
Topical administration was performed as follows: Two drops of 40 μL (two drops of 0.04 mL, or 0.08 mL total) of the test composition was applied to the corneal surface of the eye using an eye drop dispenser. Drops were applied to the chicks twice daily.
To determine changes in the rate of eye growth and the development of myopia, changes in axial length was assessed. […] Axial length, anterior chamber depth and vitreal chamber depth were measured using A-scan ultrasonography (Biometer AL-100; Tomey Corporation, Nagoya, Japan). Statistical analysis of changes in axial length, anterior chamber depth and vitreal chamber depth between groups involved a one-way ANOVA test followed by a Student's T-test with Bonferroni correction. All data are presented as the mean±the standard deviation of the mean (SEM).

SMILES | effect on excessive axial elongation associated with form-deprivation myopia (in words) (daily intravitreal injection of 0.15 mM dopamine-1,1,2,2-d4 alone) | protection relative to FDM-only [1] [%] | protection relative to FDM-only [2] [%] | axial length [3] [mm] | axial length [4] [mm] | axial length [5] [mm] | axial length [6] [mm] | protection relative to FDM-only [7] [%] | effect on excessive axial elongation associated with form-deprivation myopia (in words) (daily intravitreal injection of 17 mM pirenzepine alone) | effect on excessive axial elongation associated with form-deprivation myopia (in words) (daily intravitreal injection of 0.25 mM atropine alone) | axial length (twice daily topical administration of 50 mM atropine solution alone) [mm]
[2H]C([2H])(N)C([2H])([2H])c1ccc(O)c(O)c1 [dopamine-1,1,2,2-d4, 2-(3,4-dihydroxyphenyl)ethyl-1,1,2,2,d4-amine] | significantly inhibited | 92 | 103 | 8.77±0.11 | 8.72±0.06 | 8.88±0.10 | 8.85±0.14 | 71 | – | – | –
CN1CCN(CC(=O)N2c3ccccc3C(=O)Nc3cccnc32)CC1 [pirenzepine] | – | – | – | – | – | – | – | – | significantly inhibited | – | –
CN1[C@@H]2CC[C@H]1C[C@@H](OC(=O)C(CO)c1ccccc1)C2 (stereo partly drawn) [atropine] | – | – | – | – | – | – | – | – | – | significantly inhibited | 8.79±0.09
NCCc1ccc(O)c(O)c1 [dopamine, 2-(3,4-dihydroxyphenyl)ethylamine] | – | 78 | 78 | 8.82±0.02 | 8.82±0.11 | 8.97±0.08 | 8.84±0.07 | 72 | – | – | –
